Measurements as given in ChEMBL document CHEMBL3098113, “Identification of quinones as HER2 inhibitors for the treatment of trastuzumab resistant breast cancer” (Bioorg Med Chem Lett, 2014).
Calls of active or inactive are those of the source. No cut-off for these calls is given here.

What was measured:
MCF7 [1] = experiment: Inhibition of HER2 delta16 mutant autophosphorylation at Y1248 in human MCF7 cells at 10 uM after 2 hrs by Western blotting; format: cell-based
[2] = target: T1, Receptor tyrosine-protein kinase erbB-2 (Homo sapiens, UniProt P04626); experiment: Inhibition of HER2 autophosphorylation at Y1248 in human MCF7 cells at 10 uM after 2 hrs by Western blotting; format: cell-based
T1 sequence (P04626 whole entry): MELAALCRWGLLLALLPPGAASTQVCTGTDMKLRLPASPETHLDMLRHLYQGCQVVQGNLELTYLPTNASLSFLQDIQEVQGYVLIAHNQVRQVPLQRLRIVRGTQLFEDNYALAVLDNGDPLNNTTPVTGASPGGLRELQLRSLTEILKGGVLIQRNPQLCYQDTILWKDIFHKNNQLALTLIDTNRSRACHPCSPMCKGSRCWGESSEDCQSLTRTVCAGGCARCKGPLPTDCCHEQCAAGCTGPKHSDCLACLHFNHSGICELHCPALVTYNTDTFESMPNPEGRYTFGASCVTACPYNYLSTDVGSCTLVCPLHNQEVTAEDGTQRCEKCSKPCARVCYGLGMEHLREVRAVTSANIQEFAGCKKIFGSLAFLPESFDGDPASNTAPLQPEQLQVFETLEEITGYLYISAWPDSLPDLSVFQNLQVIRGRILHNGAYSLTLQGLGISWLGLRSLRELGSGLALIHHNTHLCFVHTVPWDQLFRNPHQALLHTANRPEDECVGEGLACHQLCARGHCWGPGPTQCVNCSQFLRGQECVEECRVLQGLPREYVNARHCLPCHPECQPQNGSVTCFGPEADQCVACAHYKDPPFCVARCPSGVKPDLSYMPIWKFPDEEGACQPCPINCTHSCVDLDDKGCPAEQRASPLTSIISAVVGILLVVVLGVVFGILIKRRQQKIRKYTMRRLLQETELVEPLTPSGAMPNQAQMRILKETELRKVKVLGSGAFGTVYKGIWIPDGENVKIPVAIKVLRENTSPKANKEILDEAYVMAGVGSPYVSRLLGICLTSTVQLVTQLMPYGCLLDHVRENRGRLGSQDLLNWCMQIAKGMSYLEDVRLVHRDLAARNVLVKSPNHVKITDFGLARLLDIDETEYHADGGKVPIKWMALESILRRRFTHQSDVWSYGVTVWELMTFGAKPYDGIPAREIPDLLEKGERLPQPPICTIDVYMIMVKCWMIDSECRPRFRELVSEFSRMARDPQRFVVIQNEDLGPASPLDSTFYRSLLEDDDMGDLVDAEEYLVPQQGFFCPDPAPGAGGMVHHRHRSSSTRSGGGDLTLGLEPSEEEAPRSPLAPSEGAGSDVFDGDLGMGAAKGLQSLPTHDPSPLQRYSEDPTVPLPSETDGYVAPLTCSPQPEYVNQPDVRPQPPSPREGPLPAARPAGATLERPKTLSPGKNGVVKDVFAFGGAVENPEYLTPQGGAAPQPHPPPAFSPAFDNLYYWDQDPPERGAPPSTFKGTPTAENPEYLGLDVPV

[3] = target: T1, Receptor tyrosine-protein kinase erbB-2; experiment: Inhibition of HER2 autophosphorylation at Y1248 in human MCF7 cells expressing pcDNA3 at 10 uM after 2 hrs by Western blotting; format: cell-based
MCF7 [4] = experiment: Cytotoxicity against human MCF7 cells expressing HER2delta16 assessed as reduction of cell viability after 48 hrs CellTiter-Glo assay; format: functional, cell-based; details: MCF7, 48 h
MCF7 [5] = experiment: Cytotoxicity against human MCF7 cells expressing HER2 assessed as reduction of cell viability after 48 hrs CellTiter-Glo assay; format: functional, cell-based; details: MCF7, 48 h
MCF7 [6] = experiment: Cytotoxicity against human MCF7 cells expressing pcDNA3 assessed as reduction of cell viability after 48 hrs CellTiter-Glo assay; format: functional, cell-based; details: MCF7, 48 h
MCF7 [7] = experiment: Cytotoxicity against human MCF7 cells expressing pcDNA3 assessed as reduction of cell viability at 10 uM after 48 hrs CellTiter-Glo assay; format: functional
MCF7 [8] = experiment: Cytotoxicity against human MCF7 cells expressing HER2delta16 assessed as reduction of cell viability at 10 uM after 48 hrs CellTiter-Glo assay; format: functional
MCF7 [9] = experiment: Cytotoxicity against human MCF7 cells expressing HER2 assessed as reduction of cell viability at 10 uM after 48 hrs CellTiter-Glo assay; format: functional
[10] = target: T1, Receptor tyrosine-protein kinase erbB-2; experiment: Inhibition of HER2 (unknown origin) by ADP-Glo assay

SMILES	inhibition (MCF7 [1])	inhibition [2]	inhibition [3]	IC50 (MCF7 [4])	IC50 (MCF7 [5])	IC50 (MCF7 [6])	Activity (MCF7 [7])	Activity (MCF7 [8])	Activity (MCF7 [9])	IC50 [10]
CC(=O)Oc1ccc(O)c2c1C(=O)C=CC2=O	inactive	inactive	inactive							
CS(=O)(=O)CCNCc1ccc(-c2ccc3ncnc(Nc4ccc(OCc5cccc(F)c5)c(Cl)c4)c3c2)o1 [LAPATINIB]	Active	Active	Active	19.2 µM	15.8 µM	15.7 µM	<50%	<50%	<50%	
O=C1C2=C(C(=O)c3c(O)ccc(O)c31)[C@@H](O)[C@@H](O)[C@@H](O)C2	Active	Active	Active	0.91 µM	0.87 µM	0.47 µM	>90%	>90%	>90%	10.8 µM
CC1=CC(=O)c2c(O)cccc2C1=O [PLUMBAGIN]	Active	Active	Active	5.1 µM	2.84 µM	3.35 µM	>90%	>90%	>90%	30.8 µM
O=C1C(CO)=C(CO)C(=O)c2c(O)ccc(O)c21	Active	Active	Active	0.93 µM	0.82 µM	0.5 µM	>90%	>90%	>90%	11.4 µM
